Patent US8906911B2, “Chemokine receptor antagonists” (AbbVie Inc., priority 2012, dated 2014)
Read-outs that look alike come from different tables or passages of the source.

Experiments:
human CCR2B [1] = target: T1, human CCR2B (Homo sapiens (Human), UniProt P41597); assay: Inhibition of [125I]-labeled MCP-1 binding to hCCR2B (radioligand binding in CHO cells); settings: mean Ki; [125I]-MCP-1 50 pM; CHO cells expressing human CCR2B and Gα16
Source text: CHO cells expressing human CCR2B were generated as follows. cDNA for human CCR2B (cloned from human blood) was cloned into plasmid pcDNA3.1 (from Invitrogen). The resulting plasmids were separately transfected into CHO cells expressing human Gα16 (from Molecular Devices). […] CHO cells expressing rat CCR2 were generated as follows. cDNA for rat CCR2 (cloned from rat macrophage) was cloned into plasmid pEF-flag (from Chinese Academy of Science). The resulting plasmids were transfected into CHO cells expressing human Gα16 (from […]).
Inhibition of [^125I]-Labeled MCP-1 Binding to hCCR2B
Radioligand binding assays were performed in CHO cells expressing human CCR2B and Gα16 coupling protein. All compounds were dissolved in DMSO and assays run at a final DMSO concentration of 0.5% (v/v). [^125I]-labeled human MCP-1 was purchased from PerkinElmer. Unlabelled human MCP-1 was purchased from PeproTech.
Compounds were serially diluted in DMSO before diluting into assay buffer (25 mM HEPES, pH 7.4, 5 mM MgCl2, 1 mM CaCl2, 0.5% BSA) with cryo preserved CHO cells expressing human CCR2B and the Gα16 coupling protein (30×10^3/well) and [^125I]-MCP-1 (50 pM). The reaction was incubated at room temperature for 90 minutes before transferring to GF/C filter membrane (PerkinElmer) pre-treated with 0.3% polyethyleneimine for 2 hours at 4° C. The filter membrane was washed six times with ice cold wash buffer (25 mM HEPES, pH 7.4, 5 mM MgCl2, 1 mM CaCl2, 500 mM NaCl, 0.01% (m/v) azide), dried, and sealed in a RLB sample bag (Agilent Technologies) before adding 5.0 mL Microscint 20 to each bag. Membrane was counted on Microbeta counter where background binding was determined by the presence of 100 nM MCP-1 and control total binding was determined by addition of DMSO in place of the test compound. The radioactivity values (cpm) were used to calculate the percent inhibition at a given compound concentration and the data fit to a sigmoidal curve in a semi-log plot to determine IC50 values. The corresponding Ki value is calculated as follows:
Ki=IC50/(1+[radioligand]/Kd), where [radioligand] is the concentration of the label and Kd (dissociation constant) is determined in saturation experiment with different concentrations of labeled MCP-1.

rat CCR2 = rat CCR2 (Rattus norvegicus (Rat), UniProt O55193); assay: Inhibition of native agonist (rat MCP-1)-induced intracellular calcium release, calcium flux assay in CHO cells expressing rat CCR2 and Gα16; assay type: cell-based; settings: read-out: rCCR2 Kb
rat CCR2, sequence (O55193 whole entry): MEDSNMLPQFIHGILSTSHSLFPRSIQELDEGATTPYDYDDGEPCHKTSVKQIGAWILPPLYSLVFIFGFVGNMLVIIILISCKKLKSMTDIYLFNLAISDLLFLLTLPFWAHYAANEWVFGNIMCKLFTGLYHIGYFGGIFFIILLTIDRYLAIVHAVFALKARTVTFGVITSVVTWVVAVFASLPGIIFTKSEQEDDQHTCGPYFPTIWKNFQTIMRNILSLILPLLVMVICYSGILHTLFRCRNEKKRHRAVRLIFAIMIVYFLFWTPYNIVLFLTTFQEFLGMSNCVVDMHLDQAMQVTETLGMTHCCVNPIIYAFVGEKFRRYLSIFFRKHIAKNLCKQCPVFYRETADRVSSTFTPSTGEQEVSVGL
Summary of the method: (§1)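 Compound added to Calcium 4 dye-loaded adherent cells (dye loading 60 min, 37° C., HEPES pH 7.4 buffer with probenecid), then agonist: human MCP-1 at 2 nM final for hCCR2B cells, rat MCP-1 at 4 nM final for rCCR2 cells. FLIPR fluorescence change gave IC50. Kb=IC50/(1+[agonist]/EC50). Final DMSO 0.25%.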

human CCR2B [2] = target: T1, human CCR2B; assay: Inhibition of native agonist (human MCP-1)-induced intracellular calcium release, calcium flux assay in CHO cells expressing human CCR2B and Gα16; assay type: cell-based; settings: for IC50: read-out: hCCR2B IC50; for Kb: read-out: hCCR2B Kb
Summary of the method: as §1

T1 sequence (P41597 other isoform, or with tags, fused parts or gaps): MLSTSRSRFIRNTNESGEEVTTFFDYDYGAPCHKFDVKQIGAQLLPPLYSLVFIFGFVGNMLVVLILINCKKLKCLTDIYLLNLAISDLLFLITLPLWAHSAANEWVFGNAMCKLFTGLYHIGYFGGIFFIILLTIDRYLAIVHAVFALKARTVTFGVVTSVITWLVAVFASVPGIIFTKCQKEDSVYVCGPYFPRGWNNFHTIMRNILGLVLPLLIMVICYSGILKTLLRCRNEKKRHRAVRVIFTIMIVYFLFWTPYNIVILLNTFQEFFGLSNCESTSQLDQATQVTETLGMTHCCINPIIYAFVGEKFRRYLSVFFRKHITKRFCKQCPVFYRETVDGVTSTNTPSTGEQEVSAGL

CO[C@@H]1COCC[C@@H]1N[C@@H]1C[C@H]2CCC[C@@]2(C(=O)N2C[C@@H]3C[C@H]2CN3c2ccc(C)c(C(F)(F)F)c2)C1 [Example 19, 1,5-anhydro-2,3-dideoxy-4-O-methyl-3-{[(2R,3aR,6aR)-3a-({(1S,4S)-5-[4-methyl-3-(trifluoromethyl)phenyl]-2,5-diazabicyclo[2.2.1]hept-2-yl}carbonyl)octahydropentalen-2-yl]amino}-D-erythro-pentitol]
Ki (human CCR2B [1]): 306 nM | Kb (rat CCR2): 12 nM | IC50 (human CCR2B [2]; calcium flux, human MCP-1 2 nM): 233 nM | Kb (human CCR2B [2]): 57 nM

CO[C@@H]1COCC[C@@H]1N[C@@H]1C[C@H]2CCC[C@@]2(C(=O)N2C[C@@H]3C[C@H]2CN3c2ccc(F)c(Cl)c2)C1 [Example 20, 1,5-anhydro-3-{[(2R,3aR,6aR)-3a-{[(1S,4S)-5-(3-chloro-4-fluorophenyl)-2,5-diazabicyclo[2.2.1]hept-2-yl]carbonyl}octahydropentalen-2-yl]amino}-2,3-dideoxy-4-O-methyl-D-erythro-pentitol]
Ki (human CCR2B [1]): 112 nM | Kb (rat CCR2): 18 nM | IC50 (human CCR2B [2]; calcium flux, human MCP-1 2 nM): 182 nM | Kb (human CCR2B [2]): 45 nM

CO[C@@H]1COCC[C@@H]1N[C@@H]1C[C@H]2CCC[C@@]2(C(=O)N2C[C@@H]3C[C@H]2CN3c2cccc(C(F)(F)F)n2)C1 [Example 22, 1,5-anhydro-2,3-dideoxy-4-O-methyl-3-{[(2R,3aR,6aR)-3a-({(1S,4S)-5-[6-(trifluoromethyl)pyridin-2-yl]-2,5-diazabicyclo[2.2.1]hept-2-yl}carbonyl)octahydropentalen-2-yl]amino}-D-erythro-pentitol]
Ki (human CCR2B [1]): 120 nM | Kb (rat CCR2): 12 nM | IC50 (human CCR2B [2]; calcium flux, human MCP-1 2 nM): 153 nM | Kb (human CCR2B [2]): 38 nM

CO[C@@H]1COCC[C@@H]1N[C@@H]1C[C@H]2CCC[C@@]2(C(=O)N2C[C@@H]3C[C@H]2CN3c2cc(F)cc(C(F)(F)F)c2)C1 [Example 25, 1,5-anhydro-2,3-dideoxy-3-{[(2R,3aR,6aR)-3a-({(1S,4S)-5-[3-fluoro-5-(trifluoromethyl)phenyl]-2,5-diazabicyclo[2.2.1]hept-2-yl}carbonyl)octahydropentalen-2-yl]amino}-4-O-methyl-D-erythro-pentitol]
Ki (human CCR2B [1]): 271 nM | Kb (rat CCR2): 5 nM | IC50 (human CCR2B [2]; calcium flux, human MCP-1 2 nM): 92.2 nM | Kb (human CCR2B [2]): 23 nM

CO[C@@H]1COCC[C@@H]1N[C@@H]1C[C@H]2CCC[C@@]2(C(=O)N2C[C@@H]3C[C@H]2CN3c2ccnc(C(F)(F)F)c2)C1 [Example 26, 1,5-anhydro-2,3-dideoxy-4-O-methyl-3-{[(2R,3aR,6aR)-3a-({(1S,4S)-5-[2-(trifluoromethyl)pyridin-4-yl]-2,5-diazabicyclo[2.2.1]hept-2-yl}carbonyl)octahydropentalen-2-yl]amino}-D-erythro-pentitol]
Ki (human CCR2B [1]): 792 nM | Kb (rat CCR2): 22 nM | IC50 (human CCR2B [2]; calcium flux, human MCP-1 2 nM): 598 nM | Kb (human CCR2B [2]): 147 nM

CO[C@@H]1COCC[C@@H]1N[C@@H]1C[C@H]2CCC[C@@]2(C(=O)N2C[C@@H]3C[C@H]2CN3c2ccnc(C(F)(F)F)n2)C1 [Example 27, 1,5-anhydro-2,3-dideoxy-4-O-methyl-3-{[(2R,3aR,6aR)-3a-({(1S,4S)-5-[2-(trifluoromethyl)pyrimidin-4-yl]-2,5-diazabicyclo[2.2.1]hept-2-yl}carbonyl)octahydropentalen-2-yl]amino}-D-erythro-pentitol]
Ki (human CCR2B [1]): 444 nM | Kb (rat CCR2): 19 nM | IC50 (human CCR2B [2]; calcium flux, human MCP-1 2 nM): 391 nM | Kb (human CCR2B [2]): 96 nM

CO[C@@H]1COCC[C@@H]1N[C@@H]1C[C@H]2CCC[C@@]2(C(=O)N2C[C@@H]3C[C@H]2CN3c2cc(C(F)(F)F)ccc2C#N)C1 [Example 28, 1,5-anhydro-3-{[(2R,3aR,6aR)-3a-({(1S,4S)-5-[2-cyano-5-(trifluoromethyl)phenyl]-2,5-diazabicyclo[2.2.1]hept-2-yl}carbonyl)octahydropentalen-2-yl]amino}-2,3-dideoxy-4-O-methyl-D-erythro-pentitol]
Ki (human CCR2B [1]): 32 nM | Kb (rat CCR2): 5 nM | IC50 (human CCR2B [2]; calcium flux, human MCP-1 2 nM): 19.8 nM | Kb (human CCR2B [2]): 5 nM

CO[C@@H]1COCC[C@@H]1N[C@@H]1C[C@H]2CCC[C@@]2(C(=O)N2C[C@@H]3C[C@H]2CN3c2cccc(OC(F)(F)F)c2)C1 [Example 29, 1,5-anhydro-2,3-dideoxy-4-O-methyl-3-{[(2R,3aR,6aR)-3a-({(1S,4S)-5-[3-(trifluoromethoxy)phenyl]-2,5-diazabicyclo[2.2.1]hept-2-yl}carbonyl)octahydropentalen-2-yl]amino}-D-erythro-pentitol]
Ki (human CCR2B [1]): 473 nM | Kb (rat CCR2): 8 nM | IC50 (human CCR2B [2]; calcium flux, human MCP-1 2 nM): 148 nM | Kb (human CCR2B [2]): 36 nM

CO[C@@H]1COCC[C@@H]1N[C@@H]1C[C@H]2CCC[C@@]2(C(=O)N2C[C@@H]3C[C@H]2CN3c2nc(C(F)(F)F)cs2)C1 [Example 30, 1,5-anhydro-2,3-dideoxy-4-O-methyl-3-{[(2R,3aR,6aR)-3a-({(1S,4S)-5-[4-(trifluoromethyl)-1,3-thiazol-2-yl]-2,5-diazabicyclo[2.2.1]hept-2-yl}carbonyl)octahydropentalen-2-yl]amino}-D-erythro-pentitol]
Ki (human CCR2B [1]): 831 nM | Kb (rat CCR2): 4 nM | IC50 (human CCR2B [2]; calcium flux, human MCP-1 2 nM): 95.5 nM | Kb (human CCR2B [2]): 23 nM

CO[C@@H]1COCC[C@@H]1N[C@@H]1C[C@H]2CCC[C@@]2(C(=O)N2C[C@@H]3C[C@H]2CN3c2ncc(C(F)(F)F)cc2Cl)C1 [Example 32, 1,5-anhydro-3-{[(2R,3aR,6aR)-3a-({(1S,4S)-5-[3-chloro-5-(trifluoromethyl)pyridin-2-yl]-2,5-diazabicyclo[2.2.1]hept-2-yl}carbonyl)octahydropentalen-2-yl]amino}-2,3-dideoxy-4-O-methyl-D-erythro-pentitol]
Ki (human CCR2B [1]): 1060 nM | Kb (rat CCR2): 44 nM | IC50 (human CCR2B [2]; calcium flux, human MCP-1 2 nM): 314 nM | Kb (human CCR2B [2]): 77 nM

CO[C@@H]1COCC[C@@H]1N[C@@H]1C[C@H]2CCC[C@@]2(C(=O)N2C[C@@H]3C[C@H]2CN3c2cc(C#N)ccc2C(F)(F)F)C1 [Example 36, 1,5-anhydro-3-{[(2R,3aR,6aR)-3a-({(1S,4S)-5-[5-cyano-2-(trifluoromethyl)phenyl]-2,5-diazabicyclo[2.2.1]hept-2-yl}carbonyl)octahydropentalen-2-yl]amino}-2,3-dideoxy-4-O-methyl-D-erythro-pentitol]
Ki (human CCR2B [1]): 1060 nM | Kb (rat CCR2): 24 nM | IC50 (human CCR2B [2]; calcium flux, human MCP-1 2 nM): 305 nM | Kb (human CCR2B [2]): 75 nM

CO[C@@H]1COCC[C@@H]1N[C@@H]1C[C@H]2CCC[C@@]2(C(=O)N2C[C@@H]3C[C@H]2CN3c2ccc(Cl)c(Cl)c2)C1 [Example 40, 1,5-anhydro-2,3-dideoxy-3-{[(2R,3aR,6aR)-3a-{[(1S,4S)-5-(3,4-dichlorophenyl)-2,5-diazabicyclo[2.2.1]hept-2-yl]carbonyl}octahydropentalen-2-yl]amino}-4-O-methyl-D-erythro-pentitol]
Ki (human CCR2B [1]): 38 nM | Kb (rat CCR2): 3 nM | IC50 (human CCR2B [2]; calcium flux, human MCP-1 2 nM): 41.5 nM | Kb (human CCR2B [2]): 10 nM

CO[C@@H]1COCC[C@@H]1N[C@@H]1C[C@H]2CCC[C@@]2(C(=O)N2C[C@@H]3C[C@H]2CN3c2ccc(Cl)c(C#N)c2)C1 [Example 47, 1,5-anhydro-3-{[(2R,3aR,6aR)-3a-{[(1S,4S)-5-(4-chloro-3-cyanophenyl)-2,5-diazabicyclo[2.2.1]hept-2-yl]carbonyl}octahydropentalen-2-yl]amino}-2,3-dideoxy-4-O-methyl-D-erythro-pentitol]
Ki (human CCR2B [1]): 77 nM | Kb (rat CCR2): 4 nM | IC50 (human CCR2B [2]): 49.8 nM | Kb (human CCR2B [2]): 12 nM

N#Cc1ccc(C(F)(F)F)cc1N1C[C@@H]2C[C@H]1CN2C(=O)[C@@]12CCC[C@@H]1C[C@@H](N1CCC(c3ccccc3)CC1)C2 [Example 48, 2-[(1S,4S)-5-{[(2R,3aR,6aR)-2-(4-phenylpiperidin-1-yl)hexahydropentalen-3a(1H)-yl]carbonyl}-2,5-diazabicyclo[2.2.1]hept-2-yl]-4-(trifluoromethyl)benzonitrile]
Ki (human CCR2B [1]): 8 nM | Kb (rat CCR2): 17 nM | IC50 (human CCR2B [2]): 51.8 nM | Kb (human CCR2B [2]): 13 nM

O=C(N1C[C@@H]2C[C@H]1CN2c1cc(C(F)(F)F)ccn1)[C@@]12CCC[C@@H]1C[C@@H](N1CCC(c3ccccc3)CC1)C2 [Example 49, [(2R,3aR,6aR)-2-(4-phenylpiperidin-1-yl)hexahydropentalen-3a(1H)-yl]{(1S,4S)-5-[4-(trifluoromethyl)pyridin-2-yl]-2,5-diazabicyclo[2.2.1]hept-2-yl}methanone]
Ki (human CCR2B [1]): 15 nM | Kb (rat CCR2): 23 nM | IC50 (human CCR2B [2]): 37 nM | Kb (human CCR2B [2]): 9 nM
